From US10786547B2, “Compositions, articles of manufacture and methods for treating cancer” (Biokine Therapeutics Ltd., priority 2015, dated 2020)
“Also recorded” adds a separate entry of the source. [ ]: non-standard residue; d: D form. The star is where a group is joined. Benzoyl(4-F) = O=C(c1ccc(F)cc1)*; Cit = NC(=O)NCCC[C@H](N)C(=O)O

Tests used:
[1] = system: immune cells including immature stem/progenitor cells, T cells and NK cells; test: in-vivo administration, mobilization of immune and stem/progenitor cells; settings: to the peripheral blood
[2] = in vivo
CXCR4 receptor = CXCR4 receptor (Homo sapiens, UniProt P61073); settings: cited from earlier work
Chain of CXCR4 receptor (P61073 whole entry): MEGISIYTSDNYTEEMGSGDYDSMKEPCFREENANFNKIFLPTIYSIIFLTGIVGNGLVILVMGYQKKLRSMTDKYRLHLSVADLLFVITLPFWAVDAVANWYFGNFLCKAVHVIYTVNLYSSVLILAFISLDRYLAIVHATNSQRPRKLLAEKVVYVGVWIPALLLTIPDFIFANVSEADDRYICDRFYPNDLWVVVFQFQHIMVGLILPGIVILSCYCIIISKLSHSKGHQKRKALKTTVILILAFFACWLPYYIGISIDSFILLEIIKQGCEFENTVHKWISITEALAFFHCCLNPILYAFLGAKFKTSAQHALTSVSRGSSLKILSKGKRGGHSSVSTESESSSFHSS

[3] = system: long term repopulating stem cells; settings: mice, single BL-8040 injection; cited from earlier work
[4] = system: CD34+ hematopoietic stem/progenitor cells (HSPC); settings: multiple myeloma patients, combined treatment of BL-8040 and G-CSF, single aphaeresis procedure; cited from earlier work
[5] = system: myeloid leukemia, hematopoietic tumors and non-small cell lung cancer; settings: cited from earlier work
[6] = system: immune cells including immature stem/progenitor cells, T cells and NK cells; settings: "It has been shown"; cited from earlier work

In the case of “4F-benzoyl-Arg-Arg-Nal-Cys-Tyr-Cit-Lys-DLys-Pro-Tyr-Arg-Cit-Cys-Arg-NH2 ({Benzoyl(4-F)}-RR[Nal]CY[Cit]K[dK]PYR[Cit]CR-NH2; cysteine pairing not given here) [BL-8040]”, the “mobilization of immune cells” value [1] is given as “induces rapid mobilization of a variety of immune cells including immature stem/progenitor cells as well as fully differentiated T cells and NK cells; also recorded: induce rapid mobilization of hematopoietic stem/progenitor cells and mesenchymal stem cells as well as T cells, B cells, NK cells, NKT cells and ImDC to the peripheral blood”, the safety and tolerability [2] is given as “safe and well tolerated” and the receptor occupancy (CXCR4 receptor; CXCR4 receptor) is given as “long receptor occupancy”. For the same substance, the “affinity of binding to the CXCR4 receptor” value (CXCR4 receptor) was “high affinity”, the “mobilization of long term repopulating stem cells” value [3] was “mobilized long term repopulating stem cells sufficient for transplantation” and the “collection of CD34+ hematopoietic stem/progenitor cells (HSPC)” value [4] was “enabled the collection of high number of CD34+ hematopoietic stem/progenitor cells (HSPC) in a single aphaeresis procedure”. For the same substance, the toxicity against tumors [5] was “toxic against several tumors such as myeloid leukemia, hematopoietic tumors and non-small cell lung cancer” and the “mobilization of CD34+ hematopoietic stem/progenitor cells (HSPC)” value [6] was “induces mobilization of CD34+ hematopoietic stem/progenitor cells (HSPC) that can be further used for transplantation”.
